Data from PubChem BioAssay AID330 (DTP/NCI, 2004).
“And” between values parts separate entries of the source, which are not always exact repeats. Identical values can stand only once. Inconclusive results and toxic doses are left out. Rule for the calls: active = survival T/C of 150% or more; inactive = T/C below 125% in these data. Peptide text beside a SMILES is read from it.

Tested on: P388 leukemia ip, CD2F1 mice, survival T/C
Assay: NCI In Vivo Anticancer Drug Screen. Data for tumor model P388 Leukemia (intraperitoneal) in CD2F1 (CDF1) mice
Settings: endpoint: median survival time, higher = longer survival
Procedure, shortened: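 Mice carrying the transplanted tumor received test compound or vehicle. Survival was recorded in each group, and the value is the treated-group measurement divided by that of the vehicle-treated control group.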

[1] = dose: 12.5 mg/kg/injection, schedule: Q01DX009 (ip), vehicle: other
[2] = dose: 25.0 mg/kg/injection, schedule: Q01DX009 (ip), vehicle: other
[3] = dose: 50.0 mg/kg/injection, schedule: Q01DX009 (ip), vehicle: other
[4] = dose: 100.0 mg/kg/injection, schedule: Q01DX009 (ip), vehicle: other
[5] = dose: 200.0 mg/kg/injection, schedule: Q01DX009 (ip), vehicle: other
[6] = dose: 25.0 mg/kg/injection, schedule: Q01DX009 (ip), vehicle: saline with Tween-80
[7] = dose: 50.0 mg/kg/injection, schedule: Q01DX009 (ip), vehicle: saline with Tween-80
[8] = dose: 100.0 mg/kg/injection, schedule: Q01DX009 (ip), vehicle: saline with Tween-80
[9] = dose: 200.0 mg/kg/injection, schedule: Q01DX009 (ip), vehicle: saline with Tween-80
[10] = dose: 50.0 mg/kg/injection, schedule: Q01DX009 (ip), vehicle: Klucel (hydroxypropylcellulose) (HPC)
[11] = dose: 100.0 mg/kg/injection, schedule: Q01DX009 (ip), vehicle: Klucel (hydroxypropylcellulose) (HPC)
[12] = dose: 200.0 mg/kg/injection, schedule: Q01DX009 (ip), vehicle: Klucel (hydroxypropylcellulose) (HPC)
[13] = dose: 50.0 mg/kg/injection, schedule: Q01DX009 (ip), vehicle: saline
[14] = dose: 100.0 mg/kg/injection, schedule: Q01DX009 (ip), vehicle: saline
[15] = dose: 200.0 mg/kg/injection, schedule: Q01DX009 (ip), vehicle: saline
[16] = dose: 50.0 mg/kg/injection, schedule: Q01DX005 (ip), vehicle: Klucel (hydroxypropylcellulose) (HPC)
[17] = dose: 100.0 mg/kg/injection, schedule: Q01DX005 (ip), vehicle: Klucel (hydroxypropylcellulose) (HPC)
[18] = dose: 200.0 mg/kg/injection, schedule: Q01DX005 (ip), vehicle: Klucel (hydroxypropylcellulose) (HPC)
[19] = dose: 60.0 mg/kg/injection, schedule: Q01DX005 (ip), vehicle: saline with Tween-80
[20] = dose: 120.0 mg/kg/injection, schedule: Q01DX005 (ip), vehicle: saline with Tween-80
[21] = dose: 50.0 mg/kg/injection, schedule: Q01DX005 (ip), vehicle: saline
[22] = dose: 100.0 mg/kg/injection, schedule: Q01DX005 (ip), vehicle: saline
[23] = dose: 200.0 mg/kg/injection, schedule: Q01DX005 (ip), vehicle: saline
[24] = dose: 50.0 mg/kg/injection, schedule: Q01DX005 (ip), vehicle: saline with Tween-80
[25] = dose: 100.0 mg/kg/injection, schedule: Q01DX005 (ip), vehicle: saline with Tween-80
[26] = dose: 3.75 mg/kg/injection, schedule: Q01DX005 (ip), vehicle: saline with Tween-80
[27] = dose: 7.5 mg/kg/injection, schedule: Q01DX005 (ip), vehicle: saline with Tween-80
[28] = dose: 60.0 mg/kg/injection, schedule: Q01DX005 (ip), vehicle: Klucel (hydroxypropylcellulose) (HPC)
[29] = dose: 240.0 mg/kg/injection, schedule: Q01DX005 (ip), vehicle: Klucel (hydroxypropylcellulose) (HPC)
[30] = dose: 240.0 mg/kg/injection, schedule: Q01DX005 (ip), vehicle: saline with Tween-80

Measured: T/C

COc1ccc(-c2c(C)c(C)nc(Cl)c2C#N)c(OCc2ccccc2)c1OC
inactive: dose: 0.05 mg/kg/injection, schedule: Q01DX009 (ip), vehicle: water 100 % of control | dose: 0.1 mg/kg/injection, schedule: Q01DX009 (ip), vehicle: water 104 % of control | dose: 0.2 mg/kg/injection, schedule: Q01DX009 (ip), vehicle: water 104 % of control | dose: 0.4 mg/kg/injection, schedule: Q01DX009 (ip), vehicle: other 96 % of control | dose: 0.4 mg/kg/injection, schedule: Q01DX009 (ip), vehicle: water 99 % of control | dose: 0.8 mg/kg/injection, schedule: Q01DX009 (ip), vehicle: other 97 % of control | dose: 1.6 mg/kg/injection, schedule: Q01DX009 (ip), vehicle: other 94 % of control | dose: 3.2 mg/kg/injection, schedule: Q01DX009 (ip), vehicle: other 100 % of control | dose: 6.25 mg/kg/injection, schedule: Q01DX009 (ip), vehicle: other 110 % of control | dose: 6.4 mg/kg/injection, schedule: Q01DX009 (ip), vehicle: other 102 % of control | [1] 108 % of control | [2] 104 % of control | [3] 103 % of control | [4] 111 % of control | [5] 102 % of control | dose: 400.0 mg/kg/injection, schedule: Q01DX009 (ip), vehicle: other 105 % of control

CC(=O)c1ccccc1N=Nc1ccc(N(CCCl)CCCl)cc1C
inactive: [6] 98 % of control | [7] 104 % of control and 108 % of control | [8] 96 % of control | [9] 123 % of control

Cc1ccc(S(=O)(=O)OCCn2nc(C)c3c(C)cc(=O)oc32)cc1
inactive: [10] 103 % of control | [11] 107 % of control | [12] 100 % of control

CCOC1(C)OC2OC(COC(c3ccccc3)(c3ccccc3)c3ccccc3)C(O)C(O)C2O1 (stereo not drawn)
inactive: [1] 97 % of control | [2] 97 % of control | [3] 95 % of control | [4] 98 % of control | [5] 98 % of control

CC1(C)CC(=O)C=C(NC2CCCCC2)C1
inactive: [7] 91 % of control | [8] 100 % of control

CCCCCC[N+](C)([O-])CCCCCC[N+](C)([O-])CCCCCC (stereo not drawn)
inactive: [13] 107 % of control | [14] 101 % of control | [15] 97 % of control

CC1(C)N(O)C(c2cccnc2)=[N+]([O-])C1(C)C
inactive: [16] 104 % of control | [13] 97 % of control | [17] 101 % of control | [14] 94 % of control | [18] 103 % of control | [15] 102 % of control

CN(C)c1ccc(/C=C/C=N/NC(=S)NC23CC4CC(CC(C4)C2)C3)cc1
inactive: [19] 89 % of control | [20] 86 % of control

CN(C)c1ccc(CCc2nc(N)nc3nccnc23)cc1
inactive: dose: 50.0 mg/kg/injection, schedule: Q04DX003 (ip), vehicle: Klucel (hydroxypropylcellulose) (HPC) 96 % of control | dose: 100.0 mg/kg/injection, schedule: Q04DX003 (ip), vehicle: Klucel (hydroxypropylcellulose) (HPC) 90 % of control | dose: 200.0 mg/kg/injection, schedule: Q04DX003 (ip), vehicle: Klucel (hydroxypropylcellulose) (HPC) 96 % of control | dose: 400.0 mg/kg/injection, schedule: Q04DX003 (ip), vehicle: Klucel (hydroxypropylcellulose) (HPC) 99 % of control

CC(=O)Nc1ccc(OCCOC(=O)Nc2c(Cl)cccc2Cl)cc1
inactive: [10] 92 % of control | [12] 92 % of control

CCCCCCCCCCCC1(O)OC(=O)C(C)=C1C (stereo not drawn)
inactive: dose: 12.5 mg/kg/injection, schedule: Q04DX003 (ip), vehicle: saline with Tween-80 101 % of control | dose: 25.0 mg/kg/injection, schedule: Q04DX003 (ip), vehicle: saline with Tween-80 108 % of control | dose: 50.0 mg/kg/injection, schedule: Q04DX003 (ip), vehicle: saline with Tween-80 103 % of control

N/C(=N/O)NO
inactive: [21] 112 % of control and 113 % of control | [22] 122 % of control

CN(c1ccccc1)N1C(=O)CC2(CCCC2)C1=O
inactive: dose: 100.0 mg/kg/injection, schedule: Q04DX002 (ip), vehicle: Klucel (hydroxypropylcellulose) (HPC) 103 % of control | dose: 200.0 mg/kg/injection, schedule: Q04DX002 (ip), vehicle: Klucel (hydroxypropylcellulose) (HPC) 106 % of control | dose: 400.0 mg/kg/injection, schedule: Q04DX002 (ip), vehicle: Klucel (hydroxypropylcellulose) (HPC) 94 % of control

Cn1cc(N)c(=O)[nH]c1=O
inactive: [21] 98 % of control | [22] 101 % of control | [23] 102 % of control

Oc1cccnc1Cl
inactive: [6] 110 % of control | [7] 114 % of control | [8] 114 % of control | [14] 102 % of control | [9] 119 % of control | [15] 101 % of control | dose: 400.0 mg/kg/injection, schedule: Q01DX009 (ip), vehicle: saline 108 % of control

CC1(C)S[C@@H]2C(Cl)=C(Cl)C(=O)N2[C@H]1C(=O)O
inactive: [24] 91 % of control | [25] 91 % of control

CC(NC(=O)C(C)NC(=O)C(N)CCC(=O)O)C(=O)O (stereo not drawn) (H-Glu-Ala-Ala-OH; configuration not given here)
inactive: [21] 104 % of control | [22] 104 % of control | [23] 103 % of control

O=C(O)/C=N/NS(=O)(=O)c1cccs1
inactive: [1] 119 % of control

CCN(CC)c1ccc(/C=C2\CCc3ccccc3C2=O)cc1
inactive: [10] 108 % of control | [11] 111 % of control | [12] 106 % of control

Cc1cccc(C)c1NC1=C(Cl)C(=O)c2ccccc2C1=O
inactive: [26] 103 % of control | [27] 97 % of control | dose: 15.0 mg/kg/injection, schedule: Q01DX005 (ip), vehicle: saline with Tween-80 100 % of control

CCOC(=O)Cn1/c(=N/N=C/c2ccc([N+](=O)[O-])o2)sc2cc(OC)ccc21
inactive: [26] 97 % of control | [27] 90 % of control | [28] 87 % of control | [29] 86 % of control

Nc1cc2oc(=O)[nH]c2cc1Cl
inactive: [16] 90 % of control | [17] 92 % of control | [18] 103 % of control

NS(=O)(=O)c1cc2c(cc1Cl)NC(Cc1ccccc1)NS2(=O)=O (stereo not drawn)
inactive: [19] 100 % of control | [20] 93 % of control | [30] 93 % of control

CCN1CC(O)Cc2ccccc21 (stereo not drawn)
inactive: [19] 100 % of control | [20] 94 % of control

N/C(=N\OC(=O)Nc1ccccc1)c1ccccc1
inactive: [19] 97 % of control | [20] 94 % of control | [30] 91 % of control

COc1ccc2nc3ccccc3c(SCCCCCCSc3c4ccccc4nc4ccc(OC)cc34)c2c1
inactive: dose: 15.0 mg/kg/injection, schedule: Q01DX005 (ip), vehicle: Klucel (hydroxypropylcellulose) (HPC) 101 % of control | dose: 30.0 mg/kg/injection, schedule: Q01DX005 (ip), vehicle: Klucel (hydroxypropylcellulose) (HPC) 98 % of control | [28] 100 % of control and 89 % of control and 90 % of control | [29] 89 % of control

O=C1CC2(CCCC2)C(=O)N1c1cccc2ccccc12
inactive: [10] 94 % of control | [11] 106 % of control | [12] 111 % of control

Cn1c(-c2ccc(Br)cc2)cc2[nH]c(=S)nc(N)c2c1=O
inactive: dose: 25.0 mg/kg/injection, schedule: Q01DX005 (ip), vehicle: saline with Tween-80 105 % of control | [24] 100 % of control | [25] 102 % of control | dose: 200.0 mg/kg/injection, schedule: Q01DX005 (ip), vehicle: saline with Tween-80 96 % of control
